Measured values published in patent publication US9284303B2, “Benzimidazole cannabinoid agonists bearing a substituted heterocyclic group” (priority 2006, dated 2016).

Key:
[1] = biological target: T1, human CB2 (hCB2) receptor (Homo sapiens, UniProt P34972); test: Inhibition of forskolin-activated cAMP production upon activation of hCB2 (HTRF), CHO-K1 cells; format: cell-based; details: for ratio CB2 agonism over CB1 agonism: Table C-1, selectivity hCB2 over hCB1; for EC50: read-out: CB2 pEC50 (converted)
T1 construct: expressed in transfected cells; host or cells: CHO-K1
T1 sequence (P34972 whole entry): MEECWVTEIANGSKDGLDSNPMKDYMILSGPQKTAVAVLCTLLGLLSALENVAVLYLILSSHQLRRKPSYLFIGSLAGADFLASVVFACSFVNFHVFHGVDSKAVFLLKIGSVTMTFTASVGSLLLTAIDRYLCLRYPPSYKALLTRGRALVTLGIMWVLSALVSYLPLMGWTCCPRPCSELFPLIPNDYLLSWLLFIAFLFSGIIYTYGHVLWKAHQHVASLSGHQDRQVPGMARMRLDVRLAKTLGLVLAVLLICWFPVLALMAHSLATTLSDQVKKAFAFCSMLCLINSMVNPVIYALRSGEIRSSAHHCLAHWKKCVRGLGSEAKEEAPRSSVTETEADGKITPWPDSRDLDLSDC

[2] = biological target: T2, human CB1 (hCB1) receptor (Homo sapiens, UniProt P21554); test: Inhibition of forskolin-activated cAMP production upon activation of hCB1 (HTRF), CHO-K1 cells; format: cell-based; details: forskolin-activated cAMP, pEC50=-log(EC50); for EC50: CB1 pEC50, hCB1-CHO-K1 cells; for CB1 pEC50: hCB1-CHO-K1 cells
T2 construct: expressed in transfected cells; host or cells: CHO-K1
T2 sequence (P21554 whole entry): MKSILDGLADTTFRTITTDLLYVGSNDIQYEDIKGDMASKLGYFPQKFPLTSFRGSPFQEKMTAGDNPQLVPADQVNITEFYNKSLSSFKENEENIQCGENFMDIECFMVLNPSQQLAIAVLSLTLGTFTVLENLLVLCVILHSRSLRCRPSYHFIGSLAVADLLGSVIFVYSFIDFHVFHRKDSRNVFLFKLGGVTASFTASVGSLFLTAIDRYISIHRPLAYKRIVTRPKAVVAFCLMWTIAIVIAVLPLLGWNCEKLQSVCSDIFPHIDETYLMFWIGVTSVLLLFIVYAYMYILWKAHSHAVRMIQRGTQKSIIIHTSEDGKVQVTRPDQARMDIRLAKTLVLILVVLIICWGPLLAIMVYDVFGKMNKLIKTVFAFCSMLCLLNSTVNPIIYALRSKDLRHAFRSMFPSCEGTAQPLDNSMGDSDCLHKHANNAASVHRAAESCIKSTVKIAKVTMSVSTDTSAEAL
In short: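 CHO-K1 cells stably expressing hCB1 (20,000/well) were in HBSS stimulation buffer (1 mM IBMX, 10 mM MgCl2, 0.1% BSA, pH 7.4), with 6 μM forskolin in the compound buffer, 30 min at room temperature in the dark. cAMP was read as HTRF 665/620 ratio, normalized to DMSO and CP55490. Outputs were pEC50 and inhibition at 10 μM relative to CP55490.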

[3] = hCB2-CHO-K1 cells, forskolin-activated cAMP, pEC50=-log(EC50)

| SMILES | ratio CB2 agonism over CB1 agonism [1] | EC50 [1, 3] | EC50 [2] | melting point | CB1 pEC50 [2] | CB2 pEC50 [1, 3] |
| --- | --- | --- | --- | --- | --- | --- |
| CCC(CC)Cn1c(C(C)(C)C)nc2cc(S(=O)(=O)c3ccnc(F)c3)ccc21 [Co. No. 147] | >10471 | 0.955 nM | > 10000 nM | 130.9 °C |  |  |
| CC1(C)CC(Cn2c(C(C)(C)C)nc3cc(S(=O)(=O)c4ccnc(F)c4)ccc32)CCO1 (centres unmarked) [Co. No. 149] | >8035 | 1.26 nM | > 10000 nM | 159.4 °C |  |  |
| COCCOc1cc(S(=O)(=O)c2ccc3c(c2)nc(C(C)(C)C)n3CC2CCOCC2)ccn1 [Co. No. 150] | 638 | 1.26 nM |  | 142.9 °C | 6.09 |  |
| COCCCOc1cc(S(=O)(=O)c2ccc3c(c2)nc(C(C)(C)C)n3CC2CCOCC2)ccn1 [Co. No. 151] | 8035 | 0.479 nM |  | 106.5 °C | 5.41 |  |
| CC(C)(C)c1nc2cc(S(=O)(=O)c3ccnc(OCCCO)c3)ccc2n1CC1CCOCC1 [Co. No. 152] | 3090 | 1.17 nM |  | 161.5 °C | 5.44 |  |
| COCCCc1cc(S(=O)(=O)c2ccc3c(c2)nc(C(C)(C)C)n3CC2CCOCC2)ccn1 [Co. No. 154] | >9016 | 1.12 nM | > 10000 nM | 143.4 °C |  |  |
| Cn1cc(S(=O)(=O)c2ccc3c(c2)nc(C(C)(C)C)n3CC2CCN(C=O)CC2)cn1 [Co. No. 156] | 617 | 4.07 nM | 2510 nM | 213.9 °C |  |  |
| CC(=O)NCCc1cc(S(=O)(=O)c2ccc3c(c2)nc(C(C)(C)C)n3CC2CCOCC2)ccn1 [Co. No. 158] | 5888 |  |  | 160.3 °C | 5.08 | 8.85 |
| CC(=O)N1CCC(Cn2c(C(C)(C)C)nc3cc(S(=O)(=O)c4ccc(C#N)s4)ccc32)CC1 [Co. No. 159] | >4677 | 2.14 nM | > 10000 nM | 181.2 °C |  |  |
| CO[C@H]1CC[C@@H](Cn2c(C(C)(C)C)nc3cc(S(=O)(=O)c4ccnc(F)c4)ccc32)CC1 [Co. No. 162] | >27542 | 0.363 nM | > 10000 nM | 133.5 °C |  |  |
| CC(=O)N1CCC(Cn2c(C(C)(C)C)nc3cc(S(=O)(=O)c4cnn(C)c4)ccc32)CC1 [Co. No. 168] | >1230 | 8.13 nM | > 10000 nM | 166.2 °C |  |  |
